{"source": "patent US6544787B1", "about": "“Non-myeloablative/lymphoablative conditioning regimen to induce patient anti-donor unresponsiveness in stem cell transplantation” (Hadash Medical Research Services and Development Ltd., priority 1996, dated 2003)", "key": {"[1]": {"test_system": "patient with ovarian cancer stage IIIc", "assay": "CA-125 during prior chemotherapy, case history", "assay_type": "in vivo, human", "design": "unit not given here"}, "[2]": {"test_system": "human patients with malignant and non-malignant pathogenic cell diseases", "assay_type": "in vivo", "conditions": "the other 8 patients who developed GVHD; starting with 2 mg/kg"}, "[3]": {"test_system": "cultured erythroid colonies", "assay": "β-globin gene mutation assay on cultured erythroid colonies +/- Epo", "assay_type": "cell-based, human", "conditions": "in the presence of Epo; 7% without Epo", "experimental": "To clarify the unusual clinical picture of this patient, a β-globin gene mutation assay was performed on cultured erythroid colonies, +/− erythropoietin (Epo). […] Donor cells without Epo amounted to 7%, similar to their percentage in peripheral blood lymphocytes and nucleated BMC, rising to 16% in the presence of Epo."}}, "note": "“And” between values parts separate entries of the source, which are not always exact repeats. Identical values can stand only once.", "data": [{"compound": "CC(=O)O[C@H]1C(=O)[C@@]2(C)[C@H]([C@H](OC(=O)c3ccccc3)[C@]3(O)C[C@H](OC(=O)[C@H](O)[C@@H](NC(=O)c4ccccc4)c4ccccc4)C(C)=C1C3(C)C)[C@]1(OC(C)=O)CO[C@@H]1C[C@@H]2O", "note": "[Taxol]", "values": [{"measurement": "CA-125", "setting": "[1]; 175 mg/m^2, after 3 cycles, from 600", "result": 27}, {"measurement": "CA-125", "setting": "[1]; after 10 cycles", "result": "~22"}, {"measurement": "CA-125", "setting": "[1]; total of 28 courses", "result": 152}]}, {"compound": "N.N.[Cl][Pt][Cl]", "note": "[cisplatinum]", "values": [{"measurement": "CA-125", "setting": "[1]; several courses 20 mg/d x3d q3w", "result": "328 and 439.6"}]}, {"compound": "C[C@]12C=CC(=O)C=C1CC[C@@H]1[C@@H]2C(=O)C[C@@]2(C)[C@H]1CC[C@]2(O)C(=O)CO", "note": "[prednisone]", "values": [{"measurement": "response of GVHD to treatment", "setting": "[2]", "result": "responded"}]}, {"compound": "erythropoietin [Epo]", "values": [{"measurement": "Donor cells", "setting": "[3]", "result": 16, "unit": "%"}]}]}
